Data: publication PMC12677607, “Identification of a Pair of Linear or Cyclic Naturally Inspired Bifunctional Lipopeptide Antibiotics That Overcome Antimicrobial Resistance” (Advanced Science, 2025)
Square brackets hold non-standard residues; d marks the D form. Peptide text beside a SMILES is read from it. * marks the point of attachment. Myristoyl = CCCCCCCCCCCCCC(=O)*

Columns and labels:
[1] = test system: Acinetobacter baumannii 1104008; assay: microbe, parasite or virus in culture; assay type: cell-based; conditions: 1104008, 16 h
Method: (§1) All MIC assays were performed two independent times (n = 2) in 96‐well plates using a broth micro‐dilution method. The lowest concentration of that inhibited visible microbial growth was recorded as the MIC value.
(§2) For most of bacterial strains, overnight cultures were diluted 5000‐fold in LB broth. For E. faecium and S. aureus, overnight cultures were diluted 1000‐ and 10000‐fold in LB broth, respectively. 100 µL of diluted cells was mixed with 100 µL of LB broth containing each peptide ranging from 64 to 0.125 µg mL^−1 at 2‐fold serial dilutions.

[2] = test system: Klebsiella pneumoniae CRKP 5452; assay: microbe, parasite or virus in culture; assay type: cell-based; conditions: CRKP 5452, 16 h
Method: as §1, §2

[3] = test system: Staphylococcus aureus USA300; assay: microbe, parasite or virus in culture; assay type: cell-based; conditions: USA300, 16 h
Method: as §1, §2

[4] = test system: Streptococcus pyogenes ATCC 19615; assay: microbe, parasite or virus in culture; assay type: cell-based; conditions: ATCC 19615, 16 h
Method: as §1, §2

[5] = test system: Candida albicans ATCC 10231; assay: MIC assay (YPD broth); assay type: cell-based; conditions: ATCC 10231, 16 h
Method: as §1
(§3) For fungal strains, overnight cultures were diluted 2000‐fold in YPD broth. 100 µL of diluted cells was mixed with 100 µL of YPD broth containing each peptide ranging from […] 64 to 0.125 µg mL^−1 at 2‐fold serial dilutions.

HeLa cells = assay: Cytotoxicity assay (CCK-8); assay type: cell-based, human; conditions: 48 h
Method: The cytotoxicity of each synAQU peptide was assessed using a cell counting kit‐8 (CCK‐8) assay. HeLa cells were first seeded in a 96‐well flat‐bottom microtiter plate with a density of ∼5000 cells per well and incubated in the DMEM medium supplemented with 10% FBS at 37 °C with 5% CO2 for 24 h. […] All cytotoxicity experiments were done in triplicate (n = 3) and repeated two independent times (n = 2).

[6] = test system: four Gram-negative bacteria, four Gram-positive bacteria, and one fungal pathogen; assay: Initial antimicrobial assay of 17 synAQUs; assay type: cell-based; conditions: MIC up to 64 µg mL^−1, Figure 3a
Method: as §1, §2, §3

Structure (SMILES)	MIC (μg/mL) A. baumannii 1104008 [1]	MIC (μg/mL) K. pneumoniae CRKP 5452 [2]	MIC (μg/mL) S. aureus USA300 [3]	MIC (μg/mL) S. pyogenes ATCC 19615 [4]	MIC (μg/mL) C. albicans ATCC 10231 [5]	MIC (μg/mL) Hela (HeLa cells)	activity against all nine tested strains [6]
CCCCCCCCCCCCCC(=O)N[C@@H](CCCCN)C(=O)N[C@@H](CCCNC(=N)N)C(=O)N[C@@H](CC(C)C)C(=O)N[C@@H](C)C(=O)N[C@@H](CC(C)C)C(=O)N[C@H](C(=O)N[C@@H](CC(=O)O)C(=O)N[C@@H](CC(=O)O)C(=O)N[C@H](C(=O)N[C@@H](CC(N)=O)C(=O)N[C@H](C(=O)N[C@H](Cc1ccccc1)C(=O)N[C@@H](CC(N)=O)C(=O)O)C(C)C)C(C)C)[C@@H](C)O [synAQU7-L] (Myristoyl-KRLALTDDVNV[dF]N-OH)	> 64 µg/mL	> 64 µg/mL	> 64 µg/mL	> 64 µg/mL	> 64 µg/mL	> 64 µg/mL	not active
CCCCCCCCCCCCCC(=O)N[C@H](C)C(=O)N[C@H](C)C(=O)N[C@H](Cc1ccccc1)C(=O)N[C@H](C(=O)N[C@@H](CCCNC(=N)N)C(=O)O)[C@@H](C)O [synAQU1-L] (Myristoyl-[dA][dA][dF]TR-OH)	> 64 µg/mL	> 64 µg/mL	> 64 µg/mL	> 64 µg/mL	> 64 µg/mL	> 64 µg/mL	not active
